Measured values reported in patent US9663463B2, “3-azabicyclo[3.1.0]hexane derivative and use thereof for medical purpose” (priority 2013, dated 2017).
Counter-ions that a name gives are not always drawn.

Experiments:
in vitro = in vitro ADME, mice; conditions: Crl:CD-1 (ICR), mouse, pH 7.4; murine serum, equilibrium dialysis, 37° C., 5 to 6 hours; read-out: Protein binding rate (converted)
Protocol: The protein binding rate was determined by equilibrium dialysis method using the RED Device (8K MWCO, Rapid Equilibrium Dialysis Device, Thermo Scientific). The test substances that had been dissolved in DMSO were added to the serum that was collected from Crl: CD-1 (ICR) mice fasted overnight, so that the final concentration of DMSO became 1% (v/v). The serum to which the test substance had been added was added to the inner side of the dialysis membrane of the RED Device, and PBS (phosphate buffer saline, pH 7.4) containing 0.01% (v/v) Tween 80 was added to the outside in accordance with the method for using the RED Device and incubated at 37° C. for 5 to 6 hours with ellipsoidal shaking at 100 rpm so that the concentration of the unbound test substance in the serum and the concentration of the test substance in the PBS reached equilibrium. After the incubation was completed, the respective solutions were collected and stored under freezing at −60° C. or less as measurement samples. The proteins were removed from the measurement sample by adding acetonitrile in an amount of 5-fold or more of the amount of the internal standard substance and the serum sample, and the supernatants were measured by LC/MS/MS (liquid chromatograph—triple quadrupole mass spectrometer). The serum samples were measured after suitably diluting with distilled water as necessary.
A: the concentration of the test substance in the PBS sample
B: the concentration of the test substance in the serum sample

[1] = Plasma concentration of test substance at ED50 value (mice, LC/MS/MS); type: in vivo; conditions: at the ED50 value, at time of morphine administration, oral, linear regression from two doses
Protocol: The concentration of the test substances in blood plasma was confirmed by using mice of the same week-old for the same dose as that used in the evaluation of the anti-pruritic effect. The test substance was administered by forced oral administration of an administration vehicle prepared in a similar manner to that in the evaluation of the anti-pruritic effect under a non-fasting condition. The blood samples were collected from the orbital venous plexus, within from 15 minutes after the administration of the test substance to after 180 minutes at the maximum, for multiple times including the timing at which the morphine solution was intracisternally administered, under inhalation anesthesia with diethyl ether or isoflurane using a heparin-treated hematocrit tubes. The collected blood samples were immediately ice-cooled and centrifuged at 1,800 g for 15 minutes at 4° C., and the plasma fractions were transferred and stored under freezing at −30° C. or less until measurement.
The concentrations of the test substances in plasma were measured using LC/MS/MS. Furthermore, as the measurement samples for LC/MS/MS, the supernatants obtained by adding an internal standard substance and acetonitrile in an amount within a range from 5-fold to 10-fold of the amount of the plasma to the collected plasma samples, and removing proteins therefrom, was used.

| SMILES | fraction unbound (in vitro) | Plasma concentration of test substance [1] |
| --- | --- | --- |
| CC[C@]1(c2cc(NS(=O)(=O)C3CC3)ccc2F)[C@@H]2CN(CC3(O)Cc4ccccc4C3)C[C@@H]21 [Example 2-(b), N-(3-{(1R,5S,6r)-6-ethyl-3-[(2-hydroxy-2,3-dihydro-1H-inden-2-yl)methyl]-3-azabicyclo[3.1.0]hexan-6-yl}-4-fluorophenyl)cyclopropanesulfonamide hydrochloride] | 0.006 | 21.4 nM |
| CC[C@]1(c2cccc(NS(=O)(=O)C3CC3)c2)[C@@H]2CN(CCCC3CCC(F)(F)CC3)C[C@@H]21 [Example 4-(b), N-(3-{(1R,5S,6r)-3-[3-(4,4-difluorocyclohexyl)propyl]-6-ethyl-3-azabicyclo[3.1.0]hexan-6-yl}phenyl)cyclopropanesulfonamide hydrochloride] | 0.019 | 31.6 nM |
| CC[C@]1(c2cc(NS(=O)(=O)C3CC3)ccc2F)[C@@H]2CN(CCCC3CCC(F)(F)CC3)C[C@@H]21 [Example 5-(b), N-(3-{(1R,5S,6r)-3-[3-(4,4-difluorocyclohexyl)propyl]-6-ethyl-3-azabicyclo[3.1.0]hexan-6-yl}-4-fluorophenyl)cyclopropanesulfonamide hydrochloride] | 0.005 | 116 nM |
| CC[C@]1(c2cccc(NS(=O)(=O)C3CC3)c2)[C@@H]2CN(CCCN3CCC(F)(F)C3)C[C@@H]21 [Example 8-(b), N-(3-{(1R,5S,6r)-3-[3-(3,3-difluoropyrrolidin-1-yl)propyl]-6-ethyl-3-azabicyclo[3.1.0]hexan-6-yl}phenyl)cyclopropanesulfonamide hydrochloride] | 0.316 | 10.9 nM |
| CC[C@]1(c2cc(F)cc(NS(=O)(=O)C3CC3)c2)[C@@H]2CN(CC3(O)Cc4ccccc4C3)C[C@@H]21 [Example 10-(b), N-(3-{(1R,5S,6r)-6-ethyl-3-[(2-hydroxy-2,3-dihydro-1H-inden-2-yl)methyl]-3-azabicyclo[3.1.0]hexan-6-yl}-5-fluorophenyl)cyclopropanesulfonamide hydrochloride] | 0.102 | 129 nM |
| CC[C@]1(c2cc(NS(=O)(=O)C3CC3)ccc2F)[C@@H]2CN(CCCN3CCC(F)(F)CC3)C[C@@H]21 [Example 15-(b), N-(3-{(1R,5S,6r)-3-[3-(4,4-difluoropiperidin-1-yl)propyl]-6-ethyl-3-azabicyclo[3.1.0]hexan-6-yl}-4-fluorophenyl)cyclopropanesulfonamide hydrochloride] | 0.1 | 71.5 nM |
| CC[C@]1(c2cccc(NS(=O)(=O)C3CC3)c2)[C@@H]2CN(CCCN3CCCC(F)(F)C3)C[C@@H]21 [Example 16-(b), N-(3-{(1R,5S,6r)-3-[3-(3,3-difluoropiperidin-1-yl)propyl]-6-ethyl-3-azabicyclo[3.1.0]hexan-6-yl}phenyl)cyclopropanesulfonamide hydrochloride] | 0.246 | 44.5 nM |
